Test results: article PMC5979471, “Telomerase Inhibition by a New Synthetic Derivative of the Aporphine Alkaloid Boldine” (International Journal of Molecular Sciences, 2018)
Structures can show the parent of a compound that is named as a salt.

Target: T1, telomerase (catalytic subunit TERT) (Homo sapiens, UniProt O14746)
T1 construct: with telomerase RNA component TER (endogenous telomerase ribonucleoprotein in MCF7 lysate)
Assay: q-TRAP-ligand assay in MCF7 cell lysate, compound added before telomere elongation
Assay type: biochemical

T1 sequence (O14746 whole entry): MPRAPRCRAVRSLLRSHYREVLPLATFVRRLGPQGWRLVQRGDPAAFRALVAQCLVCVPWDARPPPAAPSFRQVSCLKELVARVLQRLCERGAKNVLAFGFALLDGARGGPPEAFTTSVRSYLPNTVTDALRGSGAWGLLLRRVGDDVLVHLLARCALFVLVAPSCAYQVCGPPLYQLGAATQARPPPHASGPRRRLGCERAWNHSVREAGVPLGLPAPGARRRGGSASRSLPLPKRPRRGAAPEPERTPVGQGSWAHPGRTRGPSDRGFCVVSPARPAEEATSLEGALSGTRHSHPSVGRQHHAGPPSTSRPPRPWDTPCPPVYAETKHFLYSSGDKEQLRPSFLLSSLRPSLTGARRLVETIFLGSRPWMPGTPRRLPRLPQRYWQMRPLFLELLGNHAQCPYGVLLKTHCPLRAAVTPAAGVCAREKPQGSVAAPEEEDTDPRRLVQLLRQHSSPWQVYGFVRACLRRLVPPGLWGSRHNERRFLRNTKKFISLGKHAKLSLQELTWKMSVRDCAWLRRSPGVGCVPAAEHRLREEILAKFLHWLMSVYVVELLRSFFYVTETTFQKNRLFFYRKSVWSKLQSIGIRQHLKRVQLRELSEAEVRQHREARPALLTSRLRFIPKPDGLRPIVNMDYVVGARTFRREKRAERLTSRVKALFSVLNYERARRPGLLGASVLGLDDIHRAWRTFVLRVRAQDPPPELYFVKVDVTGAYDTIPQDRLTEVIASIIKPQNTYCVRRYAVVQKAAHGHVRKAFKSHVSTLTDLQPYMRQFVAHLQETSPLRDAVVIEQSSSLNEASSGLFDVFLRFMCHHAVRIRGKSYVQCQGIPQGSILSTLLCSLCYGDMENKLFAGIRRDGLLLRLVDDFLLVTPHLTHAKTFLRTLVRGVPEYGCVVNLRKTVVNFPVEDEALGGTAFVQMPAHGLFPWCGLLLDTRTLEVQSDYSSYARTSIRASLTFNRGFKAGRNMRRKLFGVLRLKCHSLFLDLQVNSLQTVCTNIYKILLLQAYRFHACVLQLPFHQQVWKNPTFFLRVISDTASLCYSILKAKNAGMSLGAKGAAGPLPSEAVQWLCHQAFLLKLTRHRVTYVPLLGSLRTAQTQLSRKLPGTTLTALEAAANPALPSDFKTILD

COc1cc2c(ccc3c(CCN(C)Cc4ccccc4)cc(O)c(OC)c32)cc1O [BSB, N-benzylsecoboldine hydrochloride]
IC50: 0.17 ± 0.1 µM

COc1cc2c(cc1O)C[C@H]1c3c(cc(O)c(OC)c3-2)CCN1C [Boldine, 1,10-dimethoxy-2,9-dihydroxyaporphine]
IC50: 68 ± 2.5 µM
